Measured values published in patent US5118804A, “Process for preparing alkyl-1-thioglycosides and alkyl-glycosides, anomer mixtures thereof” (Beghin-Say, SA, priority 1989, dated 1992).

Legend:
[1] = test system: cytochromes P-45011β and P-450scc; assay: Extraction of cytochromes P-45011β and P-450scc from mitochondrions of the bovine suprarenal cortex, and inactivation of the proteins; settings: proteins 20 mg/ml, detergent 15 mg/ml; for Extraction rate [after 1 h] / Inactivation rate [after 1 h]: pH 7.4, after 1 h; for Extraction rate [after 2 h] / Inactivation rate [after 2 h]: pH 7.4, after 2 h
Excerpt: For example, but without implying any limitation with regard to other uses, several alkyl-1-thio-α,β-glycosides prepared in the manner of the invention were used to extract membrane proteins from the bovine suprarenal cortex. The suprarenal cortex cells contain enzyme systems which cause steroidogenesis. […] In conventionally used methods, they are optimally extracted in the presence of sodium cholate. However, the ionic nature of the sodium cholate detergent results in a greater denaturation rate of the enzymatic proteins as the contact time between the proteins and the sodium cholate is prolonged. Accordingly, and in particular, the sodium cholate detergent presents difficulties when used to reconstitute the lipid environment of these proteins.
(§1) The membrane proteins are extracted by incubation in a suitable buffer containing 50 mM potassium phosphate, pH=7.4, 1 mM dithiothreitol, 1 mM EDTA, and 10 μM desoxycorticosterone. The respective concentrations of proteins and detergents are 20 and 15 mg/ml. Following incubation, the medium is centrifuged (100,000 g, 45 mins.) and the cytochromes P-450 are metered into the supernatant by recording the differential spectrum for the reduced form Fe^2+ and the complex Fe^2+ CO. Denaturation is estimated by the absorption difference measured at 450 nm (native form) and 420 nm (denatured form).

cytochrome P-45017α = assay: Extraction of cytochrome P-45017α from bovine suprarenal cortex microsomes, and inactivation of the protein; parameters: unit not given here; settings: 30 mins. at 4° C, proteins 4 mg/ml, detergent 15 mg/ml
Excerpt: These CMC values allow the glycosides to be used as detergents in membrane protein extraction. For example, but without implying any limitation with regard to other uses, several alkyl-1-thio-α,β-glycosides prepared in the manner of the invention were used to extract membrane proteins from the bovine suprarenal cortex. The suprarenal cortex cells contain enzyme systems which cause steroidogenesis. These are membrane enzymes in the mitochondrions (cytochromes P-45011β and P-450scc) and in the microsomes (cytochrome P-45017α). In conventionally used methods, they are optimally extracted in the presence of sodium cholate. However, the ionic nature of the sodium cholate detergent results in a greater denaturation rate of the enzymatic proteins as the contact time between the proteins and the sodium cholate is prolonged. Accordingly, and in particular, the sodium cholate detergent presents difficulties when used to reconstitute the lipid environment of these proteins.
as §1, with “The mitochondrions of the bovine suprarenal cortex are prepared in the manner of M. Satre & P. V. Vignais (Biochemistry, 13 (1974) 2201). The membrane” for “The membrane”
The extraction of cytochrome P-45017α involved obtaining the bovine suprarenal cortex microsomes in the form of a button after 45 mins. centrifugation at 100,000 g of the post-mitochondrial supernatant. The membrane proteins are extracted as indicated above in reference to Table 2 for 30 mins. at 4° C. The respective concentrations of the proteins and detergents are 4 and 15 mg/ml. Following centrifugation, the activity of cytochrome P-45017α is measured in the supernatant by checking the transformation of (^3 H)-pregnenolone into (^3 H)-17α-hydroxy-pregnenolone.

[2] = Chem. Pharm. Bull., 33 (1985), 503-8; cited from earlier work
[3] = Critical micelle concentration (CMC), Tsuchiya and Saito method; type: physicochemical; settings: α,β anomer mixtures
Excerpt: The critical micelle concentrations as measured according to the Tsuchiya and Saito method, J. Biochem., 96 (1984), 1593, are set forth in Table 1 for various fatty acid chain alkyl-1-thio-α,β-glycosides prepared according to the present invention.

SMILES | Extraction rate (cytochrome P-45017α) | Inactivation rate (cytochrome P-45017α) | Critical micelle concentration (CMC) [3] | Extraction rate [after 1 h] [1] | Inactivation rate [after 1 h] [1] | Extraction rate [after 2 h] [1] | Inactivation rate [after 2 h] [1] | CMC of the prior art mentioned in the literature [2]
CCCCCCCCS[C@@H]1O[C@H](CO)[C@@H](O)[C@H](O)[C@H]1O [1-octyl-1-thio-β- -- D-glucopyranoside, 1-octyl-1-thio-β-D-glucopyranoside, reference compound] | 31 | 0 | – | 0% | 18% | 48% | 91% | 9.0 mM
CCCCCCCCO[C@@H]1O[C@H](CO)[C@@H](O)[C@H](O)[C@H]1O [1-octyl-β-D-glucopyranoside, reference compound] | 89 | 20 | – | 0% | 100% | 0% | 100% | –
C[C@H](CCC(=O)O)[C@H]1CC[C@H]2[C@@H]3[C@H](O)C[C@@H]4C[C@H](O)CC[C@]4(C)[C@H]3C[C@H](O)[C@]12C [sodium cholate, reference compound] | – | – | – | 0% | 94% | – | – | –
CCCCCCCCSC1O[C@H](CO)[C@@H](O)[C@H](O)[C@H]1O (stereo partly drawn) [1-octyl-1-thio-α,β- -- D-glucopyranoside, 1-octyl-1-thio-α,β-D-glucopyranoside] | 93 | 0 | 3.0 mM | 43% | 60% | 49% | 72% | –

Second part, led by results:

Extraction rate (cytochrome P-45017α) | Inactivation rate (cytochrome P-45017α) | Critical micelle concentration (CMC) [3] | SMILES | Extraction rate [after 1 h] [1] | Inactivation rate [after 1 h] [1] | Extraction rate [after 2 h] [1] | Inactivation rate [after 2 h] [1] | CMC of the prior art mentioned in the literature [2]
57 | 0 | – | CCCCCCCSC1O[C@H](CO)[C@@H](O[C@@H]2O[C@H](CO)[C@H](O)[C@H](O)[C@H]2O)[C@H](O)[C@H]1O (stereo partly drawn) [1-heptyl-1-thio-α,β-lactoside] | 0% | 30% | 0% | 50% | –
65 | 57 | 0.2 mM | CCCCCCCCSC1O[C@H](CO)[C@@H](O[C@@H]2O[C@H](CO)[C@H](O)[C@H](O)[C@H]2O)[C@H](O)[C@H]1O (stereo partly drawn) [1-octyl-1-thio-α,β-lactoside] | 0% | 55% | 0% | 62% | –
85 | 0 | 4.1 mM | CCCCCCCSC1O[C@H](CO)[C@@H](O)[C@H](O)[C@H]1O (stereo partly drawn) [1-heptyl-1-thio-α,β-D-glucopyranoside] | 0% | 48% | 0% | 47% | –
58 | 0 | 0.2 mM | CCCCCCCCSC1O[C@H](CO)[C@@H](O[C@H]2O[C@H](CO)[C@@H](O)[C@H](O)[C@H]2O)[C@H](O)[C@H]1O (stereo partly drawn) [1-octyl-1-thio-α,β-maltoside] | 0% | 48% | 21% | 94% | –
72 | 0 | 0.2 mM | CCCCCCCCSC1O[C@H](CO)[C@@H](O[C@@H]2O[C@H](CO)[C@@H](O)[C@H](O)[C@H]2O)[C@H](O)[C@H]1O (stereo partly drawn) [1-octyl-1-thio-α,β-cellobioside] | 0% | 55% | 0% | 20% | –
